Measurements taken from patent US20140256639A1, “PEPTOID NEUTRALIZING AGENTS” (The Regents of the University of California, priority 2013, published 2014).

Experiments:
proteases = conditions: physiological conditions; cited from earlier work
heparin activity = conditions: Rabenstein and Wang 2006; cited from earlier work
[1] = Heparin affinity chromatography (HAC), NaCl gradient elution; format: binding; conditions: pH 7.2, 50 mM sodium phosphate, gradient 0 to 1 M NaCl over 60 min, 0.65 mL/min
Description: The relative affinities of the peptoids in Table 2 for heparin were determined by heparin affinity chromatography (“HAC”). Peptoid solutions, typically 0.2 mM, were eluted by gradient elution; mobile phase A consisted of pH 7.2, 50 mM sodium phosphate buffer and mobile phase B consisted of the same buffer but with 1 M NaCl added. The flow rate was 0.65 mL/min and the gradient began with 100% mobile phase A and 0% mobile phase B, and ended at 60 min with 0% mobile phase A and 100% B although most of the peptoid runs were complete within 30 min or less.

Substance	stability / degradation by proteases (proteases)	other results
Ac-SRGKAKVKAKVKDQTK-NH2 [D-HIPAP]	more stable than L-HIPAP	–
Ac-SRGKAKVKAKVKDQTK-NH2 [L-HIPAP]	more susceptible to degradation by proteases	–
Ac-SRGKAKVKAKVKDQTK-NH2 (not fully specified; printed as Ac-SRGKAKVKAKVKDQTK-NH2) [L-HIPAP]	–	neutralizing heparin activity (heparin activity): equally effective
H-[N(Orn)-N(All)-N(Spe)]3-NH2 [s9merAll]	–	HAC r.t. [1]: 20 ± 2.0 min
